Experimental data reported in PubChem BioAssay AID1259411 (Chemical Carcinogenesis Research Information System (CCRIS), 2018).
Active and inactive are the calls of the source. No rule for the calls is given here.

System: rodent carcinogenicity bioassays, tumor incidence
Assay: CCRIS carcinogenicity studies
Outline: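 Archive of carcinogenicity, mutagenicity, tumor promotion and tumor inhibition results drawn from journals, NCI reports and other sources, expert-reviewed; covers 1985-2011 and is no longer updated.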

## COc1ccc(C(c2ccc(OC)cc2)C(Cl)(Cl)Cl)cc1
Species: MOUSE, Strain/Sex: B6C3F1/FEMALE, Route: ORAL, Dose: 0, 997, 1994 PPM IN DIET, TWA, Dose: 0, 997, 1994 PPM IN DIET, TWA
  carcinogen call: inactive; negative
Species: MOUSE, Strain/Sex: B6C3F1/MALE, Route: ORAL, Dose: 0, 1746, 3491 PPM IN DIET, TWA, Dose: 0, 1746, 3491 PPM IN DIET, TWA
  carcinogen call: inactive; negative
Species: MOUSE, Strain/Sex: BALB/MALE, Route: ORAL, Dose: 750 PPM IN DIET, Tumor Site: Type of Lesion: TESTES: INTERSTITIAL CELL CARCINOMA
  carcinogen call: active; positive
Species: RAT, Strain/Sex: OSBORNE-MENDEL/FEMALE, Route: ORAL, Dose: 0, 750, 1385 PPM IN DIET, TWA, Dose: 0, 750, 1385 PPM IN DIET, TWA
  carcinogen call: inactive; negative
Species: RAT, Strain/Sex: OSBORNE-MENDEL/MALE, Route: ORAL, Dose: 0, 448, 845 PPM IN DIET, TWA, Dose: 0, 448, 845 PPM IN DIET, TWA
  carcinogen call: inactive; negative

## O=c1c(O[C@@H]2O[C@H]([C@H](O)CO)[C@H](O)[C@H]2O)c(-c2ccc(O)c(O)c2)oc2cc(O)cc(O)c12
Species: RAT, Strain/Sex: F344 DUCRJ/FEMALE (50/GROUP), Route: ORAL, DIET, Dose: 119.2, 352.8 MG/KG DAILY FOR 104 WK (STUDY DURATION: 104 WK), TEST MATERIAL WAS ENZYMATICALLY MODIFIED, Dose: 119.2, 352.8 MG/KG DAILY FOR 104 WK (STUDY DURATION: 104 WK), TEST MATERIAL WAS ENZYMATICALLY MODIFIED, Tumor Site: Type of Lesion: NONE
  carcinogen call: inactive; negative
Species: RAT, Strain/Sex: F344 DUCRJ/MALE (50/GROUP), Route: ORAL, DIET, Dose: 142.5, 431.1 MG/KG DAILY FOR 104 WK (STUDY DURATION: 104 WK), TEST MATERIAL WAS ENZYMATICALLY MODIFIED, Dose: 142.5, 431.1 MG/KG DAILY FOR 104 WK (STUDY DURATION: 104 WK), TEST MATERIAL WAS ENZYMATICALLY MODIFIED, Tumor Site: Type of Lesion: NONE
  carcinogen call: inactive; negative

## CN(N=O)C(=O)c1c(N(C)N=O)ncn1C
Species: RAT, Strain/Sex: BD-IX/MALE, FEMALE, Route: GAVAGE, Dose: 0, 6, 60 MG/KG 2/WK AFTER 2 WK HIGH DOSE REDUCED TO 30 MG/KG FOR DURATION OF STUDY (STUDY DURATION: LIFETIME), Dose: 0, 6, 60 MG/KG 2/WK AFTER 2 WK HIGH DOSE REDUCED TO 30 MG/KG FOR DURATION OF STUDY (STUDY DURATION: LIFETIME), Tumor Site: Type of Lesion: FORESTOMACH: TUMOR
  carcinogen call: active; positive

## O=C(O)CN(CC(=O)O)CC(=O)O
Species: MOUSE, Strain/Sex: B6C3F1/FEMALE, Route: ORAL, Dose: 0, 2500, 5000 PPM IN DIET (STUDY DURATION: 18 MO), Dose: 0, 2500, 5000 PPM IN DIET (STUDY DURATION: 18 MO)
  carcinogen call: inactive; negative
Species: MOUSE, Strain/Sex: B6C3F1/FEMALE, Route: ORAL, Dose: 0, 7500, 15000 PPM IN DIET, Dose: 0, 7500, 15000 PPM IN DIET
  carcinogen call: inactive; negative
Species: MOUSE, Strain/Sex: B6C3F1/MALE, Route: ORAL, Dose: 0, 2500, 5000 PPM IN DIET (STUDY DURATION: 18 MO), Dose: 0, 2500, 5000 PPM IN DIET (STUDY DURATION: 18 MO)
  carcinogen call: inactive; negative
Species: MOUSE, Strain/Sex: B6C3F1/MALE, Route: ORAL, Dose: 0, 7500, 15000 PPM IN DIET, Dose: 0, 7500, 15000 PPM IN DIET, Tumor Site: Type of Lesion: KIDNEY: MALIGNANT TUMOR
  carcinogen call: active; positive
Species: RAT, Strain/Sex: F344/FEMALE, Route: ORAL, Dose: 0, 200, 2000, 20000 PPM IN DIET (STUDY DURATION: 24 MO), Dose: 0, 200, 2000, 20000 PPM IN DIET (STUDY DURATION: 24 MO), Tumor Site: Type of Lesion: URINARY BLADDER: TUMOR, URETER: TUMOR, KIDNEY: TUMOR, Tumor Site: Type of Lesion: URINARY BLADDER: TUMOR, URETER: TUMOR, KIDNEY: TUMOR
  carcinogen call: active; positive
Species: RAT, Strain/Sex: F344/FEMALE, Route: ORAL, Dose: 0, 7500, 1500 PPM IN DIET (STUDY DURATION: 18 MO), Dose: 0, 7500, 1500 PPM IN DIET (STUDY DURATION: 18 MO), Tumor Site: Type of Lesion: URINARY BLADDER: PAPILLOMA OR SQUAMOUS CELL CARCINOMA OR TRANSITIONAL CELL CARCINOMA
  carcinogen call: equivocal
Species: RAT, Strain/Sex: F344/FEMALE, Route: ORAL, Dose: 0, 7500, 15000 PPM IN DIET, Dose: 0, 7500, 15000 PPM IN DIET, Tumor Site: Type of Lesion: URINARY BLADDER: MALIGNANT TUMOR
  carcinogen call: active; positive
Species: RAT, Strain/Sex: F344/MALE, Route: ORAL, Dose: 0, 200, 2000, 20000 PPM IN DIET (STUDY DURATION: 24 MO), Dose: 0, 200, 2000, 20000 PPM IN DIET (STUDY DURATION: 24 MO), Tumor Site: Type of Lesion: KIDNEY: TUMOR, URETER: TUMOR
  carcinogen call: active; positive
Species: RAT, Strain/Sex: F344/MALE, Route: ORAL, Dose: 0, 7500, 15000 PPM IN DIET (STUDY DURATION: 18 MO), Dose: 0, 7500, 15000 PPM IN DIET (STUDY DURATION: 18 MO), Tumor Site: Type of Lesion: KIDNEY: TUBULAR CELL ADENOCARCINOMA OR SARCOMA METASTATIC OR HAMARTOMA, RENAL PELVIS: TRANSIT CELL PAPILLOMA
  carcinogen call: equivocal
Species: RAT, Strain/Sex: F344/MALE, Route: ORAL, Dose: 0, 7500, 15000 PPM IN DIET, Dose: 0, 7500, 15000 PPM IN DIET
  carcinogen call: inactive; negative
Species: RAT, Strain/Sex: SPRAGUE-DAWLEY/MALE, Route: ORAL, Dose: 0, 1000 PPM (PURITY NOT REPORTED) IN DRINKING WATER FOR 2 YR, Tumor Site: Type of Lesion: KIDNEY: TUBULAR CELL ADENOMA OR ADENOCARCINOMA
  carcinogen call: active; positive

## CC(C)c1ccccc1
Species: Mouse, Strain/Sex: B5C3F1/ Female (50/Group), Route: Inhalation, Dose: 0, 125, 250, 500 ppm for 6 hr plus 12 min per d, 5 d/wk, 105 wk (Study duration: 105 wk), Dose: 0, 125, 250, 500 ppm for 6 hr plus 12 min per d, 5 d/wk, 105 wk (Study duration: 105 wk), Tumor Site: Type of Lesion: Lung: Alveolar/bronchiolar adenoma (1/50; 26/50; 36/50; 38/50), Alveolar/bronchiolar carcinoma (3/50, 16/50, 20/50, 34/, Tumor Site: Type of Lesion: Lung: Alveolar/bronchiolar adenoma (1/50; 26/50; 36/50; 38/50), Alveolar/bronchiolar carcinoma (3/50, 16/50, 20/50, 34/
  carcinogen call: active; positive. authors describe as clear evidence of carcinogenicity based on increas
Species: Mouse, Strain/Sex: B5C3F1/ Male (50/Group), Route: Inhalation, Dose: 0, 250, 500, 1,000 ppm for 6 hr plus 12 min per d, 5 d/wk, 105 wk (Study duration: 105 wk), Dose: 0, 250, 500, 1,000 ppm for 6 hr plus 12 min per d, 5 d/wk, 105 wk (Study duration: 105 wk), Tumor Site: Type of Lesion: Lung: Alveolar/bronchiolar adenoma (13/50; 31/50; 29/50), Alveolar/bronchiolar carcinoma (9/50, 19/50, 32/50, 33/, Tumor Site: Type of Lesion: Lung: Alveolar/bronchiolar adenoma (13/50; 31/50; 29/50), Alveolar/bronchiolar carcinoma (9/50, 19/50, 32/50, 33/
  carcinogen call: active; positive. authors describe as clear evidence of carcinogenicity based on increas
Species: Rat, Strain/Sex: F344/N / Female (50/Group), Route: Inhalation, Dose: 0, 250, 500, 1,000 ppm for 6 hr plus 12 min per d, 5 d/wk, 105 wk (Study duration: 105 wk), Dose: 0, 250, 500, 1,000 ppm for 6 hr plus 12 min per d, 5 d/wk, 105 wk (Study duration: 105 wk), Tumor Site: Type of Lesion: Nose (respiratory epithelium): Adenoma (0/50; 5/48; 4/50; 3/50)
  carcinogen call: inactive; negative. authors describe as some evidence of carcinogenicity.
Species: Rat, Strain/Sex: F344/N / Male (50/Group), Route: Inhalation, Dose: 0, 250, 500, 1,000 ppm for 6 hr plus 12 min per d, 5 d/wk, 105 wk (Study duration: 105 wk), Dose: 0, 250, 500, 1,000 ppm for 6 hr plus 12 min per d, 5 d/wk, 105 wk (Study duration: 105 wk), Tumor Site: Type of Lesion: Nose (respiratory epithelium): Adenoma (0/50, 7/50, 18/49, 10/50, Renal tubule: Adenoma (1/50; 4/50; 5/50; 4/50), Renal, Tumor Site: Type of Lesion: Nose (respiratory epithelium): Adenoma (0/50, 7/50, 18/49, 10/50, Renal tubule: Adenoma (1/50; 4/50; 5/50; 4/50), Renal
  carcinogen call: active; positive. authors describe as clear evidence of carcinogenicity except that test

## COc1cc2c(c3oc(=O)c4c(c13)CCC4=O)[C@@H]1CCO[C@@H]1O2
Species: HUMAN, Route: ORAL, Tumor Site: Type of Lesion: LIVER
  carcinogen call: active; positive
Species: RAT, Route: ORAL, Tumor Site: Type of Lesion: LIVER
  carcinogen call: active; positive

## O=NN1CCN(N=O)CC1
Species: RAT, Strain/Sex: F344/FEMALE, Route: INTRAVESICAL, Dose: 0, 374 MG (TOTAL DOSE) INJECTED INTO BLADDER 2/WK OVER 36 WK (STUDY DURATION: 102 WK), Tumor Site: Type of Lesion: NASAL CAVITY: TUMOR
  carcinogen call: active; positive

## Nc1ccc(Oc2ccc(N)c(Cl)c2)cc1Cl
Species: RAT, Route: SUBCUTANEOUS, Tumor Site: Type of Lesion: EAR (CANAL)
  carcinogen call: active; positive
